Test results published in patent US9132136B2, “Pharmaceutical combination” (HOFFMANN-LA ROCHE INC., priority 2010, dated 2015).
“Also recorded” adds a separate entry of the source. Where a name gives a salt, the structure may show the parent alone. Read-outs that look alike come from different tables or passages of the source.

Assays:
mouse TAAR1 = molecular target: T1, mouse TAAR1 (Mus musculus, UniProt Q923Y8); test: In vitro functional activity (cAMP assay) at mouse TAAR1 receptor in recombinant HEK293 cells; format: cell-based; conditions: for Emax: HEK293, relative to phenylethylamine having 100% agonistic activity, read-out: % efficacy
T1 construct: expressed in transfected cells
Procedure: In Vitro Functional Activity of TAAR1 Agonists at Mouse TAAR1 Receptor
Recombinant HEK293 cells expressing the mouse TAAR1 were grown at 37° C. and 5% CO2/95% air in 250 ml Falcon culture flasks in 30 ml culture medium. The cell culture medium contained DMEM high glucose, fetal calf serum (10%, heat inactivated for 30 min at 56° C.), geneticin G418 (500 μg/ml), and penicillin/streptomycin (1%). Cells were harvested when 80-90% confluent. Then culture medium was then removed from the culture flasks, cells washed once with 5 ml of PBS. After removing the wash solution, 5 ml of trypsin/EDTA solution were added for 5 min at 37° C. Afterwards, 45 ml of culture medium was added to the 5 ml detached cell solution and the total 50 ml transferred into a 50 ml Falcon tube (ref: 2070), the tube was centrifuged at 1300 rpm for 3 min at RT and the culture medium removed. The cell pellet was resuspended in fresh culture medium and brought to 5×10 E5 cells per milliliter. Then the cells were plated in 96-well Plate (BIOCOAT 6640 from Becton Dickinson) with a multipipette (100 μl/well, 50 000 cells/well) and incubated 20 h at 37° C.
The cell culture medium was removed and the cells washed once with PBS. 50 μl of PBS (AMIMED Endotoxine free: 8-05F00-1) with 1 mM IBMX were added and the cells allowed to incubate for 30 min at 37° C. and 5% CO2/95% air. Then 50 μl of a (e.g.) 20 μM compound solution or 50 μl of a 50% beta-PEA stimulation concentration in PBS (AMIMED Endotoxine free) with 1 mM IBMX were added and the cells incubated for 30 min at 37° C. as above again. After the incubation the cells were lysed with 50 μl of the 3× Detection Mix solution containing Ru-cAMP, Alexa700-cAMP Ab and lysis buffer for at least 60 min (better 2 h) at RT under strong shaking. The fluorescence is measured on the NanoScan (10M reader) (Ex. 456 nm, Em. 630 & 700 nm).
Efficacy values (% eff.) are relative to phenylethylamine having 100% agonistic activity.

[1] = Oral glucose tolerance test (oGTT) in male C57Bl6 mice; format: in vivo, male C57BL/6J mice
Procedure: An oral glucose tolerance test (oGTT) was performed in C57Bl6 mice to address potential anti-diabetic effects of TAAR1 agonists. Male C57BL/6J mice (Charles River Laboratories, Lyon, France) were stratified into groups of 8 mice according to body weight. The evening before the animals received 1 g food, this corresponds to a fasting period of about 10 hours. At the experiment day the animals were treated with TAAR1 agonists or placebo (0.3% Tween 80) 45 minutes prior to an oral glucose challenge of 2 g/kg. The main readout was blood glucose measured with Accu-Chek Aviva. In parallel blood samples were taken for insulin determination.

[2] = system: cocaine-induced hyperlocomotor activity in mice; test: Cocaine-induced locomotion test in mice; format: in vivo
[3] = 14-day treatment in rats: body weight gain, fat mass (MR relaxometry), food intake
Text: Along with body weight measurement, magnetic resonance (MR) relaxometry was employed to determine, in a noninvasive manner, fat mass composition in the animals.

[4] = system: L-687414-induced hyperlocomotion in mice; test: L-687414-induced locomotion test in mice; format: in vivo
[5] = paediatric patients, cited from earlier work
[6] = HEK293 cells expressing mouse TAAR1, cAMP assay, read-out: EC50
[7] = 10 and 30 mg/kg p.o., vs vehicle
[8] = 0.1 and 0.3 mg/kg p.o., vs vehicle
[9] = 14 days, 1 mg/kg p.o., vs vehicle
[10] = 14 days, 3 and 10 mg/kg p.o., vs vehicle
[11] = 0.3 and 1 mg/kg p.o., vs vehicle
[12] = 14 days, olanzapine 2 mg/kg p.o.

T1 sequence (Q923Y8 whole entry): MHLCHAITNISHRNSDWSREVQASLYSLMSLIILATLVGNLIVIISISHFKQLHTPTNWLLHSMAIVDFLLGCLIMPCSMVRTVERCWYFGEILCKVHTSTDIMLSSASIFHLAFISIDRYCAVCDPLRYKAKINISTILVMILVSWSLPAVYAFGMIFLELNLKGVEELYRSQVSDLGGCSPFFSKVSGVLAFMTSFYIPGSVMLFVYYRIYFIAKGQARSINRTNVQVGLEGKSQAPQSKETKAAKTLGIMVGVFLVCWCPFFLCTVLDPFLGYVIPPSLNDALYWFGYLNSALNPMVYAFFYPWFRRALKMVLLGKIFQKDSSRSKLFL

## O=C(Nc1ccc(C2CCNC2)cc1)c1ccc(Cl)cc1 (racemic) [Example S6, (RS)-4-Chloro-N-(4-pyrrolidin-3-yl-phenyl)-benzamide hydrochloride]
Mouse TAAR1
  Emax: 78%
Mouse TAAR1; [6]
  EC50: 1.4 nM
[1]; [7]
  glucose AUC (0-60 min) during oGTT: markedly lowered

## O=C(Nc1ccc(C2CCNC2)cc1)Nc1ccc(Cl)cn1 (racemic) [Example S7, (RS)-1-(5-Chloro-pyridin-2-yl)-3-(4-pyrrolidin-3-yl-phenyl)-urea hydrochloride]
Mouse TAAR1
  Emax: 57%
Mouse TAAR1; [6]
  EC50: 0.8 nM
[1]; 10 mg/kg p.o., vs vehicle
  glucose AUC (0-60 min) during oGTT: markedly lowered

## O=C(Nc1ccc(C2CCNC2)cc1)c1ccc(Cl)cn1 (racemic) [Example S8, (RS)-5-Chloro-pyridine-2-carboxylic acid (4-pyrrolidin-3-yl-phenyl)-amide hydrochloride]
Mouse TAAR1
  Emax: 65%
Mouse TAAR1; [6]
  EC50: 7.4 nM
[1]; [7]
  glucose AUC (0-60 min) during oGTT: markedly lowered

## CC[C@@H](C[C@H]1COC(N)=N1)c1ccccc1 [Example S1, (S)-4-((S)-2-Phenyl-butyl)-4,5-dihydro-oxazol-2-ylamine]
Mouse TAAR1
  Emax: 90%
Mouse TAAR1; [6]
  EC50: 2 nM
[2]; tested alone, 0.1 mg/kg p.o.
  cocaine-induced hyperlocomotor activity: partially antagonized
[1]
  fasting glucose levels: No effect
[1]; [8]
  glucose AUC (0-60 min) during oGTT (blood glucose excursion): significantly lowered; also recorded: markedly lowered
  insulin AUC (0-60 min) during oGTT (insulin excursion): significantly lower; also recorded: markedly lowered

## Cc1c(F)cccc1[C@H]1COC(N)=N1 [Example S2, (S)-4-(3-fluoro-2-methyl-phenyl)-4,5-dihydro-oxazol-2-ylamine]
[3]; [9]
  fat mass: No significant effect
  food intake: No significant effect
[3]; 14 days, 1 mg/kg p.o., vs vehicle, 1 mg/kg
  weight gain: No significant effect and not
[3]; 14 days, 10 mg/kg
  food intake: significant reduction
[3]; 14 days, 3 and 10 mg/kg p.o.
  weight loss compared to pre-treatment values: without inducing weight loss
[3]; [10]
  fat mass: reduced
  food intake: reduced
  weight gain: reduced
[3]; Study 1, 3 mg/kg
  Cumulative food intake ± SEM: 233.8 ± 7.4 g
[3]; Study 1, 10 mg/kg
  Cumulative food intake ± SEM: 217.0 ± 7.3 g
[3]; Study 2, 1 mg/kg
  Cumulative food intake ± SEM: 248.8 ± 5.0 g
Mouse TAAR1
  Emax: 65%
Mouse TAAR1; [6]
  EC50: 1.8 nM
[2]; 1 and 3 mg/kg p.o.
  cocaine-induced hyperlocomotor activity: significantly antagonized
[2]; doses that antagonized cocaine (1 and 3 mg/kg p.o.)
  effects on baseline locomotor activity: modest effects
[2]; tested alone, 0.3 mg/kg p.o., 0.3 mg/kg
  cocaine-induced hyperlocomotor activity: partially active; also recorded: partially antagonized
[1]; [11]
  glucose AUC (0-60 min) during oGTT: markedly lowered
  insulin AUC (0-60 min) during oGTT: markedly lowered
[4]; acute, 0.00003-1 mg/kg p.o.
  L-687414-induced hyperlocomotion: dose-dependently antagonized; also recorded: fully antagonized
[4]; alone, 0.001 mg/kg p.o.
  L-687414-induced locomotor activity: partially active

## NC1=N[C@@H](c2ccc(Cl)cc2C(F)(F)F)CO1 [Example S3, (+)-(S)-4-(4-Chloro-2-trifluoromethyl-phenyl)-4,5-dihydro-oxazol-2-ylamine]
Mouse TAAR1
  EC50: 1.3 nM
  Emax: 67%
[1]; 1 and 3 mg/kg p.o., vs vehicle
  glucose AUC (0-60 min) during oGTT: markedly lowered
  insulin AUC (0-60 min) during oGTT: markedly lowered

## CCN(C[C@H]1COC(N)=N1)c1ccccc1 [Example S4, (S)-4-[(Ethyl-phenyl-amino)-methyl]-4,5-dihydro-oxazol-2-ylamine]
Mouse TAAR1
  Emax: 65%
Mouse TAAR1; [6]
  EC50: 3.3 nM
[1]; 0.3 mg/kg p.o., vs vehicle
  glucose AUC (0-60 min) during oGTT: markedly lowered
  insulin AUC (0-60 min) during oGTT: markedly lowered

## CC[C@@H](C[C@H]1COC(N)=N1)Oc1cccc(O)c1 [Example S5, 3-[(S)-1-((S)-2-Amino-4,5-dihydro-oxazol-4-ylmethyl)-propoxy]-phenol]
Mouse TAAR1
  Emax: 51%
Mouse TAAR1; [6]
  EC50: 1.6 nM
[1]; 30 mg/kg p.o., vs vehicle
  glucose AUC (0-60 min) during oGTT: markedly lowered

## C[C@H](OC[C@H]1COC(N)=N1)c1ccc(F)cc1 [Example S9, (S)-4-[(S)-1-(4-Fluoro-phenyl)-ethoxymethyl]-4,5-dihydro-oxazol-2-ylamine]
Mouse TAAR1
  Emax: 99%
Mouse TAAR1; [6]
  EC50: 1.7 nM
[1]; 10 mg/kg p.o., vs vehicle
  glucose AUC (0-60 min) during oGTT: markedly lowered

## NC1=N[C@@H](CCc2ccc(NC(=O)c3ncc(Cl)cn3)cc2)CO1 [Example S10, 5-Chloro-pyrimidine-2-carboxylic acid {4-[2-((S)-2-amino-4,5-dihydro-oxazol-4-yl)-ethyl]-phenyl}-amide]
Mouse TAAR1
  Emax: 32%
Mouse TAAR1; [6]
  EC50: 1.6 nM
[1]; 10 mg/kg p.o., vs vehicle
  glucose AUC (0-60 min) during oGTT: markedly lowered

## NC1=N[C@@H](CCc2ccc(NC(=O)c3ccc(Cl)cc3)cc2)CO1 [Example S11, N-{4-[2-((S)-2-Amino-4,5-dihydro-oxazol-4-yl)-ethyl]-phenyl}-4-chloro-benzamide]
Mouse TAAR1
  Emax: 45%
Mouse TAAR1; [6]
  EC50: 0.1 nM
[1]; 1 and 3 mg/kg p.o., vs vehicle
  glucose AUC (0-60 min) during oGTT: markedly lowered

## Cc1cc(C(=O)Nc2ccc([C@@H]3CNCCO3)cc2)cc(Cl)n1 [Example S12, (R)-2-Chloro-6-methyl-N-(4-(morpholin-2-yl)phenyl)isonicotinamide hydrochloride]
Mouse TAAR1
  Emax: 69%
Mouse TAAR1; [6]
  EC50: 3.1 nM
[1]; 3 mg/kg p.o., vs vehicle
  glucose AUC (0-60 min) during oGTT: markedly lowered

## O=C(Nc1ccc([C@H]2CNCCO2)cc1)c1ccc(OCC(F)(F)F)nc1 [Example S13, (S)—N-(4-(Morpholin-2-yl)phenyl)-6-(2,2,2-trifluoroethoxy)nicotinamide hydrochloride]
Mouse TAAR1
  Emax: 54%
Mouse TAAR1; [6]
  EC50: 1.6 nM
[1]; 3 mg/kg p.o., vs vehicle
  glucose AUC (0-60 min) during oGTT: markedly lowered

## O=C(Nc1ccc([C@H]2CNCCO2)cc1)c1ccnc(C(F)(F)F)c1 [Example S14, (S)—N-(4-(Morpholin-2-yl)phenyl)-2-(trifluoromethyl)isonicotinamide hydrochloride]
Mouse TAAR1
  Emax: 55%
Mouse TAAR1; [6]
  EC50: 4.6 nM
[1]; 1 mg/kg p.o., vs vehicle
  glucose AUC (0-60 min) during oGTT: markedly lowered

## O=C(NCc1ccc(F)cc1)Nc1ccc([C@H]2CNCCO2)cc1 [Example S15, (S)-1-(4-Fluorobenzyl)-3-(4-(morpholin-2-yl)phenyl)urea hydrochloride]
Mouse TAAR1
  Emax: 40%
Mouse TAAR1; [6]
  EC50: 0.6 nM
[1]; 1 mg/kg p.o., vs vehicle
  glucose AUC (0-60 min) during oGTT: markedly lowered

## N#Cc1cccc(NC(=O)Nc2ccc([C@H]3CNCCO3)cc2)c1 [Example S16, (S)-1-(3-Cyanophenyl)-3-(4-(morpholin-2-yl)phenyl)urea hydrochloride]
Mouse TAAR1
  Emax: 60%
Mouse TAAR1; [6]
  EC50: 0.4 nM
[1]; 1 mg/kg p.o., vs vehicle
  glucose AUC (0-60 min) during oGTT: markedly lowered

## O=C(Nc1ccc([C@H]2CNCCO2)cc1)c1ccc(Cl)nc1 [Example S17, (S)-6-Chloro-N-(4-(morpholin-2-yl)phenyl)nicotinamide hydrochloride]
Mouse TAAR1
  Emax: 39%
Mouse TAAR1; [6]
  EC50: 1.8 nM
[1]; [11]
  glucose AUC (0-60 min) during oGTT: markedly lowered

## O=C1CCc2ccc(OCCCCN3CCN(c4cccc(Cl)c4Cl)CC3)cc2N1 [aripiprazole]
[5]; study period
  adverse metabolic baseline-to-endpoint changes (total cholesterol, triglycerides, non-HDL cholesterol, ratio of triglycerides to HDL cholesterol): not significant

## Cc1cc2c(s1)Nc1ccccc1N=C2N1CCN(C)CC1 [olanzapine, reference compound]
[3]; [12]
  food intake: increase
  weight gain: increase
[3]; Study 2, olanzapine 2 mg/kg
  Cumulative food intake ± SEM: 301.6 ± 8.6 g
[5]
  incidence rates of hyperglycaemia and the metabolic syndrome: highest incidence rates

## OCCOCCN1CCN(C2=Nc3ccccc3Sc3ccccc32)CC1 [quetiapine]
[5]
  incidence rates of hyperglycaemia and the metabolic syndrome: modestly higher incidence rates
[5]; study period
  adverse metabolic baseline-to-endpoint changes (total cholesterol, triglycerides, non-HDL cholesterol, ratio of triglycerides to HDL cholesterol): reached statistical significance

## Cc1nc2n(c(=O)c1CCN1CCC(c3noc4cc(F)ccc34)CC1)CCCC2 [risperidone]
[5]; study period
  levels of triglycerides: increased significantly
